After the bases stand the sugars from the 5' end (letter, count) and the backbone: PS all phosphorothioate, else s phosphorothioate and o phosphodiester by linkage. Methylation of C is not given here. e = 2'-O-(2-methoxyethyl) (MOE); k = constrained ethyl (cEt); d = 2'-deoxy (DNA)
Molecular target: SOD1
Conditions: ASO

Sequence: TCACAGGCTTGAATGAC (sugars e2 k2 d9 k2 e2, PS)
- target mRNA inhibition (HepG2, 5 µM): 46%

Sequence: GCCATACAGGGTTTTTA (sugars e2 k2 d9 k2 e2, PS)
- target mRNA inhibition (HepG2, 5 µM): 26%

Sequence: CATGCCTCTCTTCATCC (sugars e3 k2 d7 k2 e3, PS)
- target mRNA inhibition (HepG2, 3 µM): 14%

Sequence: TTCTACAGCTAGCAGGA (sugars e3 k2 d7 k2 e3, PS)
- target mRNA inhibition (HepG2, 3 µM): 31%

Sequence: CGCTGCAGGAGACTACG (sugars e3 k2 d7 k2 e3, PS)
- target mRNA inhibition (HepG2, 3 µM): 0%

Sequence: ATAAGTGCCATACAGGG (sugars e2 k2 d8 k2 e3, PS)
- target mRNA inhibition (HepG2, 5 µM): 36%

Sequence: TACAGGTACTTTAAAGC (sugars e2 k2 d8 k2 e3, PS)
- target mRNA inhibition (HepG2, 5 µM): 23%

Sequence: CAAAATACAGGTCATTG (sugars e2 k2 d8 k2 e3, PS)
- target mRNA inhibition (HepG2, 5 µM): 44%

Sequence: GTCAGTCCTTTAATGCTTCC (sugars e5 d10 e5, PS)
- target mRNA inhibition (HepG2, 5 µM): 34%

Sequence: CAGGATAACAGATGAGT (sugars e2 k2 d8 k2 e3, PS)
- target mRNA inhibition (HepG2, 0.1875 µM): 62%
- target mRNA inhibition (HepG2, 0.75 µM): 89%
- target mRNA inhibition (HepG2, 3 µM): 95%
- target mRNA inhibition (HepG2, 4 µM): 95%
- target mRNA inhibition (HepG2, 12 µM): 95%

Sequence: CAAGTTTAATACCCATC (sugars e3 k2 d7 k2 e3, PS)
- target mRNA inhibition (HepG2, 3 µM): 37%

Sequence: AGGTACTTTAAAGCAAC (sugars e2 k2 d9 k2 e2, PS)
- target mRNA inhibition (HepG2, 5 µM): 42%

Sequence: AAGTGATCATAAATCAGTTT (sugars e5 d10 e5, PS)
- target mRNA inhibition (HepG2, 4 µM): 86%
- target mRNA inhibition (HepG2, 5 µM): 8%
- target mRNA inhibition (HepG2, 12 µM): 96%

Sequence: TAATACCCATCTGTGAT (sugars e2 k2 d9 k2 e2, PS)
- target mRNA inhibition (HepG2, 5 µM): 28%

Sequence: TTGGGCGATCCCAATTA (sugars e2 k2 d8 k2 e3, PS)
- target mRNA inhibition (HepG2, 4 µM): 14%

Sequence: TCACACAATTACACTTTTAA (sugars e5 d10 e5, PS)
- target mRNA inhibition (HepG2, 5 µM): 15%

Sequence: AATGATGCAATGGTCTCCTG (sugars e5 d10 e5, PS)
- target mRNA inhibition (HepG2, 5 µM): 0%

Sequence: AATGCTTCCCCACACCT (sugars e3 k2 d7 k2 e3, PS)
- target mRNA inhibition (HepG2, 3 µM): 35%

Sequence: CAAGCCAAACGACTTCCAGC (sugars e5 d10 e5, PS)
- target mRNA inhibition (HepG2, 0.1875 µM): 9%
- target mRNA inhibition (HepG2, 0.75 µM): 27%
- target mRNA inhibition (HepG2, 3 µM): 59%
- target mRNA inhibition (HepG2, 5 µM): 54%
- target mRNA inhibition (HepG2, 12 µM): 89%

Sequence: GACAAGTTTAATACCCA (sugars e3 k2 d7 k2 e3, PS)
- target mRNA inhibition (HepG2, 3 µM): 24%

Sequence: GCTTCCCCACACCTTCACTG (sugars e5 d10 e5, linkages s1 o3 s11 o3 s1)
- target mRNA inhibition (A431, 0.12 µM): 0%
- target mRNA inhibition (A431, 0.6 µM): 0%
- target mRNA inhibition (A431, 3 µM): 11%
- target mRNA inhibition (A431, 15 µM): 0%
- target mRNA inhibition (HepG2, 0.222 µM): 14%
- target mRNA inhibition (HepG2, 0.667 µM): 32%
- target mRNA inhibition (HepG2, 2 µM): 79%
- target mRNA inhibition (HepG2, 6 µM): 55%

Sequence: GGGCCTCAGACTACATC (sugars e2 k2 d8 k2 e3, PS)
- target mRNA inhibition (HepG2, 4 µM): 55%

Sequence: GCTAGCAGGATAACAGA (sugars e2 k2 d8 k2 e3, PS)
- target mRNA inhibition (HepG2, 4 µM): 19%

Sequence: TTTATTCACAGGCTTGA (sugars e2 k2 d9 k2 e2, PS)
- target mRNA inhibition (HepG2, 5 µM): 55%

Sequence: TCACTACAGGTACTTTA (sugars e2 k2 d9 k2 e2, PS)
- target mRNA inhibition (HepG2, 5 µM): 35%

Sequence: GATTTAAGTCTGGCAAA (sugars e2 k2 d8 k2 e3, PS)
- target mRNA inhibition (HepG2, 5 µM): 19%

Sequence: TACATTTCTACAGCTA (sugars kekeddddddddekek, linkages s1 o3 s8 o1 s2)
- target mRNA inhibition (A431, 0.12 µM): 0%
- target mRNA inhibition (A431, 0.6 µM): 13%
- target mRNA inhibition (A431, 3 µM): 36%
- target mRNA inhibition (A431, 15 µM): 59%

Sequence: TAATACCCATCTGTGAT (sugars e2 k2 d8 k2 e3, PS)
- target mRNA inhibition (HepG2, 5 µM): 25%

Sequence: CTTTTTCATGGACCACCAGT (sugars e5 d10 e5, PS)
- target mRNA inhibition (HepG2, 5 µM): 9%

Sequence: CTTCAGCACGCACACGGCCT (sugars e5 d10 e5, PS)
- target mRNA inhibition (HepG2, 0.1875 µM): 13%
- target mRNA inhibition (HepG2, 0.75 µM): 23%
- target mRNA inhibition (HepG2, 3 µM): 48%
- target mRNA inhibition (HepG2, 4 µM): 57%
- target mRNA inhibition (HepG2, 12 µM): 77%

Sequence: GATAACAGATGAGTTAA (sugars e2 k2 d8 k2 e3, PS)
- target mRNA inhibition (HepG2, 4 µM): 41%

Sequence: GGCTTGAATGACAAAGA (sugars e2 k2 d8 k2 e3, PS)
- target mRNA inhibition (HepG2, 5 µM): 54%

Sequence: ATGTTTATTGGGCGATC (sugars e2 k2 d8 k2 e3, PS)
- target mRNA inhibition (HepG2, 0.1875 µM): 15%
- target mRNA inhibition (HepG2, 0.75 µM): 36%
- target mRNA inhibition (HepG2, 3 µM): 79%
- target mRNA inhibition (HepG2, 4 µM): 76%
- target mRNA inhibition (HepG2, 12 µM): 95%

Sequence: AAATCTTCCAAGTGATC (sugars e2 k2 d8 k2 e3, PS)
- target mRNA inhibition (HepG2, 5 µM): 46%

Sequence: GTTTATCAGGATACATT (sugars e2 k2 d9 k2 e2, PS)
- target mRNA inhibition (HepG2, 0.1875 µM): 38%
- target mRNA inhibition (HepG2, 0.75 µM): 74%
- target mRNA inhibition (HepG2, 3 µM): 89%
- target mRNA inhibition (HepG2, 4 µM): 88%
- target mRNA inhibition (HepG2, 12 µM): 95%

— the OligoGym collection
